We go through seven compounds from PubChem BioAssay (NCI).

Each structure is given as a SMILES string.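 Values below derive from 48-hour exposures of cells grown in 96-well plates, with endpoints linearly interpolated between the two concentrations bracketing the appropriate inhibition level. TGI marks complete inhibition of growth.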

Among the test systems are HCT-116 colon; SR leukemia; MALME-3M melanoma; MCF7 breast; HOP-62 NSCLC; TK-10 renal; MOLT-4 leukemia; COLO 205 colon; PC-3 prostate; UACC-62 melanoma; SK-OV-3 ovarian; CAKI-1 renal; UO-31 renal; K-562 leukemia; LOX IMVI melanoma; IGROV1 ovarian; HCC-2998 colon; HCT-15 colon; A549 NSCLC; OVCAR-4 ovarian.
Holding throughout (assay): growth of human tumour cells (NCI), 48 h

As to `[N-]=[N+]=Nc1c(Cl)c(Cl)nc2ccccc12`, the TGI with HCT-116 colon, in the experiment with SR leukemia, with MALME-3M melanoma, with MCF7 breast, in the experiment with HOP-62 NSCLC and in the experiment with TK-10 renal was above 100 µM in each case. The TGI was above 100 µM in the experiment with MOLT-4 leukemia; above 100 µM in the experiment with COLO 205 colon; above 100 µM with PC-3 prostate; above 100 µM in the experiment with UACC-62 melanoma; above 100 µM with SK-OV-3 ovarian; 57.8 µM in the experiment with CAKI-1 renal. For the same compound, the TGI with UO-31 renal, in the experiment on K-562 leukemia, with LOX IMVI melanoma, with IGROV1 ovarian, in the experiment with HCC-2998 colon and in the experiment with HCT-15 colon was above 100 µM each time. For the same compound, the TGI with A549 NSCLC and with OVCAR-4 ovarian was above 100 µM each time.
`C#C/C=C\CCCCCCCCCCCCCC/C=C\CCCCC#CC(O)C#CCCCC/C=C\CCCCCC/C=C/C(O)C#C` (stereo not given): the TGI with HCT-116 colon is above 32.8 µM; in the experiment on SR leukemia, above 60.8 µM; in the experiment on MALME-3M melanoma, 33.8 µM; in the experiment with MCF7 breast, above 40.2 µM; with HOP-62 NSCLC, above 75 µM; in the experiment with TK-10 renal, above 49 µM. The TGI in the experiment on MOLT-4 leukemia was above 68 µM; with COLO 205 colon it was 35.6 µM; in the experiment on PC-3 prostate, above 57.7 µM; with UACC-62 melanoma, 36.8 µM; with SK-OV-3 ovarian, above 75 µM; in the experiment on CAKI-1 renal it was 18.1 µM. The TGI was 37.4 µM in the experiment with UO-31 renal; above 75 µM with K-562 leukemia; 8.75 µM with LOX IMVI melanoma; 31 µM in the experiment on IGROV1 ovarian; 37 µM with HCC-2998 colon; above 62.3 µM in the experiment on HCT-15 colon. Also, the TGI with A549 NSCLC amounted to 37.1 µM; in the experiment with OVCAR-4 ovarian, 26.4 µM.
As to `CNC(=O)NCCN1CC2CCC(CC2)C1`, the TGI in the experiment with HCT-116 colon, with SR leukemia, in the experiment on MALME-3M melanoma, with MCF7 breast, in the experiment on HOP-62 NSCLC and in the experiment with TK-10 renal was above 10 µM in each case. Further, the TGI in the experiment with MOLT-4 leukemia, with COLO 205 colon, in the experiment with PC-3 prostate, with UACC-62 melanoma, in the experiment on SK-OV-3 ovarian and with CAKI-1 renal was above 10 µM each time. Also, the TGI with UO-31 renal, in the experiment on K-562 leukemia, in the experiment with LOX IMVI melanoma, in the experiment on IGROV1 ovarian, in the experiment on HCC-2998 colon and in the experiment with HCT-15 colon was above 10 µM throughout. Besides, the TGI in the experiment on A549 NSCLC and in the experiment with OVCAR-4 ovarian was above 10 µM in each case.
On to `NC(=O)c1cccc(N=c2oc3ccc(Br)cc3cc2-c2nc3ccccc3[nH]2)c1`, for which the TGI in the experiment on HCT-116 colon was 33.3 µM; in the experiment with SR leukemia, above 100 µM; in the experiment on MALME-3M melanoma, 43 µM; in the experiment on MCF7 breast, 31.9 µM; in the experiment on HOP-62 NSCLC it was 33.8 µM; with TK-10 renal, 30.7 µM. For the same compound, the TGI in the experiment with MOLT-4 leukemia is 43.4 µM; in the experiment with COLO 205 colon it was 35.8 µM; in the experiment on PC-3 prostate, 29.2 µM; in the experiment with UACC-62 melanoma, 28.5 µM; in the experiment with SK-OV-3 ovarian, 32.7 µM; with CAKI-1 renal, 34.3 µM. Besides, the TGI worked out at 20.8 µM in the experiment on UO-31 renal; 96.1 µM in the experiment with K-562 leukemia; 37.5 µM in the experiment on LOX IMVI melanoma; 33.6 µM in the experiment on IGROV1 ovarian; 34.9 µM with HCC-2998 colon; 32.1 µM in the experiment with HCT-15 colon. The TGI was found to be 26.4 µM in the experiment on A549 NSCLC and 47.5 µM with OVCAR-4 ovarian.
With `CC1(C)CC(=O)C2=C(C1)NC1=C(C2)C(=O)CC(C)(C)C1`, the TGI in the experiment on HCT-116 colon, with SR leukemia, with MALME-3M melanoma, with MCF7 breast, in the experiment on HOP-62 NSCLC and in the experiment on TK-10 renal was above 100 µM each time. Also, the TGI in the experiment on MOLT-4 leukemia, in the experiment on COLO 205 colon, with PC-3 prostate, in the experiment on UACC-62 melanoma, in the experiment with SK-OV-3 ovarian and with CAKI-1 renal was above 100 µM each time. Moreover, the TGI in the experiment with UO-31 renal, with K-562 leukemia, in the experiment with LOX IMVI melanoma, with IGROV1 ovarian, in the experiment with HCC-2998 colon and in the experiment on HCT-15 colon was above 100 µM each time. In addition, the TGI in the experiment with A549 NSCLC and in the experiment on OVCAR-4 ovarian was above 100 µM throughout.
With `CC(=NNC(=S)Nc1cccc(C)c1)c1cccc(C(C)=NNC(=S)Nc2cccc(C)c2)n1`, the TGI was 37.8 µM in the experiment on HCT-116 colon; 40.8 µM with SR leukemia; 49.2 µM in the experiment on MALME-3M melanoma; 77.7 µM in the experiment with MCF7 breast; above 100 µM in the experiment on HOP-62 NSCLC; 61.5 µM with TK-10 renal. Further, the TGI in the experiment on MOLT-4 leukemia was 61.6 µM; in the experiment on COLO 205 colon it was 38.5 µM; in the experiment with PC-3 prostate it was above 100 µM; in the experiment with UACC-62 melanoma it was above 100 µM; in the experiment with SK-OV-3 ovarian, above 100 µM; with CAKI-1 renal, 71.1 µM. Besides, the TGI with UO-31 renal is 86.3 µM; in the experiment with K-562 leukemia, above 100 µM; in the experiment on LOX IMVI melanoma, 85.3 µM; in the experiment with IGROV1 ovarian, 46.7 µM; in the experiment with HCC-2998 colon, above 100 µM; in the experiment with HCT-15 colon, above 100 µM. Further, the TGI turned out to be 87.1 µM with A549 NSCLC and 38.5 µM in the experiment on OVCAR-4 ovarian.
On to `O[C@H]1[C@H](O)[C@@H](O)[C@@]2(O)CC[C@@H]1N2`, for which the TGI with HCT-116 colon, in the experiment with SR leukemia, in the experiment with MALME-3M melanoma, in the experiment with MCF7 breast, in the experiment on HOP-62 NSCLC and in the experiment with TK-10 renal was above 100 µM in each case. Further, the TGI with MOLT-4 leukemia, in the experiment on COLO 205 colon, with PC-3 prostate, in the experiment on UACC-62 melanoma, with SK-OV-3 ovarian and with CAKI-1 renal was above 100 µM in each case. In addition, the TGI in the experiment with UO-31 renal, in the experiment with K-562 leukemia, in the experiment on LOX IMVI melanoma, in the experiment with IGROV1 ovarian, in the experiment with HCC-2998 colon and in the experiment with HCT-15 colon was above 100 µM in each case. Also, the TGI in the experiment on A549 NSCLC and with OVCAR-4 ovarian was above 100 µM each time.
